Series [1] concerns the target High affinity cGMP-specific 3',5'-cyclic phosphodiesterase 9A (Homo sapiens, UniProt O76083). The experiment in a line: Inhibition of full length human PDE9A expressed in Sf9 insect cells using [3H]-cGMP as substrate incubated for 60 mins by microbeta scintillation counter analysis.
Series [2] is described as follows: Blood clearance in Wistar rat at 1 mg/kg, po or 0.3 mg/kg, iv measured over 24 hrs by LC-MS/MS analysis. It counts as ADME, organism-based. As to conditions: in vivo; call rule not given here.
Series [3] in a line: Volume of distribution at steady state in Wistar rat at 1 mg/kg, po or 0.3 mg/kg, iv measured over 24 hrs by LC-MS/MS analysis. As to conditions: in vivo. It counts as ADME, organism-based.
The nature of series [4]: MRT in Wistar rat at 0.3 mg/kg, iv measured over 24 hrs by LC-MS/MS analysis. It counts as ADME, organism-based. As to conditions: in vivo.
The nature of series [5]: Oral bioavailability in Wistar rat at 1 mg/kg measured over 24 hrs by LC-MS/MS analysis. Format: ADME, organism-based. Particulars: in vivo, po, 1 mg/kg, 24 h.
A short description of series [6]: Blood clearance in dog at 1 mg/kg, po or 0.3 mg/kg, iv measured over 24 hrs by LC-MS/MS analysis. Format: ADME, organism-based, Canis lupus familiaris. Particulars: in vivo.
Series [7] can be described thus: Volume of distribution at steady state in dog at 1 mg/kg, po or 0.3 mg/kg, iv measured over 24 hrs by LC-MS/MS analysis. As to conditions: in vivo. Format: ADME, organism-based, Canis lupus familiaris.
Series [8] is described as follows: MRT in dog at 0.3 mg/kg, iv measured over 24 hrs by LC-MS/MS analysis. As to conditions: in vivo. It counts as ADME, organism-based, Canis lupus familiaris.
Series [9] is described as follows: Oral bioavailability in dog at 1 mg/kg measured over 24 hrs by LC-MS/MS analysis. It counts as ADME, organism-based, Canis lupus familiaris. Particulars: in vivo.
A short description of series [10]: Solubility of compound in PBS at pH 7 incubated for 24 hrs by UV based HPLC analysis. It counts as physicochemical. As to conditions: buffer, pH 7, 24 h.
Series [11] is described as follows: Protein binding in rat plasma assessed as fraction unbound incubated for 6 hrs by LC-MS/MS analysis. Format: ADME, cell-free.
Series [12] is described as follows: Protein binding in human plasma assessed as fraction unbound incubated for 6 hrs by LC-MS/MS analysis. Format: ADME, cell-free.
The target in series [13] is T1, High affinity cGMP-specific 3',5'-cyclic phosphodiesterase 9A (Mus musculus, UniProt O70628).
T1 sequence (O70628 whole entry): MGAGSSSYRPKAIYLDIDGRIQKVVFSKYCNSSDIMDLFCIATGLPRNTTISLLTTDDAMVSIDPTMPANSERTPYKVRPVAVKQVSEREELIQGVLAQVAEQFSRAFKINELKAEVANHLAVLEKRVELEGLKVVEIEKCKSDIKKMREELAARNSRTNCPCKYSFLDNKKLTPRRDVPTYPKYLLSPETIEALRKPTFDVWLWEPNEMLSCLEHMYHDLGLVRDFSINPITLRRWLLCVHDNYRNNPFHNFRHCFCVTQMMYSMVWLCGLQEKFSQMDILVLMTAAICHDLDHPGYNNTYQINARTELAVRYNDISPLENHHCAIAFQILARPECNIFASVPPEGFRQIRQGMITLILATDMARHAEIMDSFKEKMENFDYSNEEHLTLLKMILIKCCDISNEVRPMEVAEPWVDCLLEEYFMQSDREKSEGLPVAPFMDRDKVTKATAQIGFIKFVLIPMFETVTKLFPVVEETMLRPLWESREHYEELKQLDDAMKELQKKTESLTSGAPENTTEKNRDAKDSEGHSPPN
The experiment in a line: Inhibition of mouse PDE9A expressed in recombinant CHO cells coexpressing soluble guanylate cyclase incubated for 6 mins by [3H]-cGMP scintillation proximity assay. It counts as cell-based. For orientation: Scintillation proximity formats need no separation of bound from free tracer.

A short description of series [14]: Protein binding in mouse plasma assessed as fraction unbound incubated for 6 hrs by LC-MS/MS analysis. Format: ADME, cell-free.
Series [15] can be described thus: Protein binding in dog plasma assessed as fraction unbound incubated for 6 hrs by LC-MS/MS analysis. It counts as ADME, cell-free, Canis lupus familiaris.
A short description of series [16]: Protein binding in monkey plasma assessed as fraction unbound incubated for 6 hrs by LC-MS/MS analysis. As to conditions: rhesus monkey. Format: ADME, cell-free, Macaca mulatta.
The target in series [17] is Cytochrome P450 2C9 (Homo sapiens, UniProt P11712). Briefly: Inhibition of CYP2C9 in human liver microsomes using diclofenac as substrate by LC-MS/MS analysis. It counts as ADME, Microsome. (In general: Microsomes from liver hold many membrane-bound enzymes, among them those of drug oxidation.)
Series [18] can be described thus: Induction of CYP3A4 mRNA expression in human hepatocytes at 9.2 uM incubated for 48 hrs with media replacement for […] by qPCR analysis. It counts as ADME, cell-based, Hepatocyte.
A short description of series [19]: Stability in human hepatocytes assessed as drug degradation incubated for 4 hrs. It counts as ADME, cell-based, Hepatocyte.
The nature of series [20]: Toxicity in rat assessed as increase in blood pressure at 5 to 40 mg/kg, po administered once daily via gavage and measured every 5 mins by telemetry system based analysis. Format: organism-based. Particulars: in vivo, dose 5-40 mg/kg.
Series [21] in a line: Toxicity in rat assessed as increase in heart rate at 5 to 40 mg/kg, po administered once daily via gavage and measured every 5 mins by telemetry system based analysis. Format: organism-based. As to conditions: in vivo, dose 5-40 mg/kg.

Molecules are shown by their SMILES. Where only a bound is given, the exact number is not on record here.

High affinity cGMP-specific 3',5'-cyclic phosphodiesterase 9A (Homo sapiens, UniProt O76083), sequence (O76083 whole entry): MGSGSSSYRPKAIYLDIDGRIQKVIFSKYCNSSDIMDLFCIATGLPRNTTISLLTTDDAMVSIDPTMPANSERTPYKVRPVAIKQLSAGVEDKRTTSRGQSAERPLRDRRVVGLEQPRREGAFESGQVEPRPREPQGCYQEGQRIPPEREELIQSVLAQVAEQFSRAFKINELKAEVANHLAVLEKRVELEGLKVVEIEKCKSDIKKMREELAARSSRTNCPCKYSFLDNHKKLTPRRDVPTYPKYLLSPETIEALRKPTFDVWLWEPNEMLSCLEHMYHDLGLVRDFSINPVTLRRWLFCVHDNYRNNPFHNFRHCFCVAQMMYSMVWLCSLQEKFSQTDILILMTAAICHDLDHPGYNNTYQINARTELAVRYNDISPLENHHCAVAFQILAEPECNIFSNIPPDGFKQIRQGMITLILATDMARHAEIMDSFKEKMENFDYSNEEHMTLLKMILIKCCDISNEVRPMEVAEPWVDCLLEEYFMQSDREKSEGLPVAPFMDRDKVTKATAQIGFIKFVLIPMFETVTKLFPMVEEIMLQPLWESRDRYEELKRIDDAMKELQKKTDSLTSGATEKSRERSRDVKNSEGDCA
Cytochrome P450 2C9, sequence (P11712 whole entry): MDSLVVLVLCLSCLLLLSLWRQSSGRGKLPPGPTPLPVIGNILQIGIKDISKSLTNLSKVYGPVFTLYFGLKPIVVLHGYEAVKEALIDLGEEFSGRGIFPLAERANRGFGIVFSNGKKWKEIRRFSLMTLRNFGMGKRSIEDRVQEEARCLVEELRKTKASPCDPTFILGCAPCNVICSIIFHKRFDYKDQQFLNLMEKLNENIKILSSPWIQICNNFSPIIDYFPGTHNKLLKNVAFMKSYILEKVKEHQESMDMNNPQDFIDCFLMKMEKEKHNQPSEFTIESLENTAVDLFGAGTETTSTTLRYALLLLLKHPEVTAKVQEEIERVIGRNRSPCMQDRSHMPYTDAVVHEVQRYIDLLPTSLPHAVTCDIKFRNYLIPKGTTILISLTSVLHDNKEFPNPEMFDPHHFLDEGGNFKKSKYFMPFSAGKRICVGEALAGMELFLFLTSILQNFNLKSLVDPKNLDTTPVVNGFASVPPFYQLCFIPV

What is called IC50 is the concentration that gives 50% inhibition. For orientation: MRT means the average time that molecules of a dose stay in the body. What is called solubility is the dissolved amount per volume that the medium holds. As a reminder, the EC50 is the concentration that produces a half-maximal response. `CCCC1CNCc2c1[nH]c(=O)c(C#N)c2N1CCC2(CC1)CC2.Cl` (stereo in doubt; form 2): the IC50 in series [1] is 0.015 µM; in series [17], 16 µM. Further, the CL in [2] is 40 mL/min/kg; in series [6], 15 mL/min/kg. In addition, the Vdss was 4.5 L/kg in series [3] and 3 L/kg in series [7]. Besides, the MRT in [4] was determined as 1.9 h; in series [8], 4 h. Besides, the F in [5] is on record as 61%; in series [9], 80%. In series [10], this molecule had a solubility greater than 500 µg/mL. Also, the Fu in [11] came out at 20%; in series [12] it was 34%; in series [14], 41%; in series [15], 43%; in series [16] it was 42%. In series [13], the EC50 turned out to be 1 µM. The results for the Activity result in [18], in series [20] and in [21] were “Active”, “Non-Toxic” and “Non-Toxic”, respectively. Also, the Stability result in [19] is on record as “Stable”.

The record behind these values is ChEMBL document CHEMBL5150071, “BAY-7081: A Potent, Selective, and Orally Bioavailable Cyanopyridone-Based PDE9A Inhibitor” (J Med Chem, 2022).
